# ChEMBL document CHEMBL5385849, “Discovery of 1-hydroxy-2-methylquinolin-4(1H)-one derivatives as new cytochrome bd oxidase inhibitors for tuberculosis therapy” (Eur J Med Chem, 2023)
# Tested on: Mycobacterium tuberculosis
# Assay: Inhibition of Mycobacterium tuberculosis harboring cydAB mutant inverted-membrane vesicle cytochrome bd oxidase assessed as reduction in oxygen consumption rate at 10 uM measured upto 4 days by Methylene blue dye based assay
# Type: cell membranes
# Details: time <= 4.0 day
smiles,measurement,value
CC(C)=CCC/C(C)=C/CC/C(C)=C/Cc1c(C)[nH]c2ccccc2c1=O [AURACHIN D],inhibition,55%
Cc1c(Cc2ccc(OC(F)(F)F)cc2)c(=O)c2ccccc2n1O,inhibition,82%
